Measured values reported in article PMC9856672, “SGC-CAMKK2-1: A Chemical Probe for CAMKK2” (Cells, 2023).

How the values were obtained:
[1] = biological target: CAMKK2 (Homo sapiens, UniProt Q96RR4); design: purified recombinant CAMKK2 (100 pM) was incubated in assay buffer; method as in earlier work; conditions: reported CAMKK2 inhibitors; ref 47 (Price et al.); cited from earlier work
[2] = Single dose IP pharmacokinetic study in mice; assay type: in vivo, CD-1 mice; conditions: mouse, 10 mg/kg IP, plasma at 0.5, 1, 3, 8 h
Description: CD-1 mice with weights 23–25 g were purchased from Charles River Laboratories.
The animal experiments were performed at Alliance Pharma (Malvern, PA, USA) in accordance with the guide for the care and use of laboratory animals. Alliance Pharma is accredited by the Association for Assessment and Accreditation of Laboratory Animal Care (AAALAC).
The test compounds were dissolved in DMSO and then diluted to the appropriate concentration with the vehicle. For formulation we targeted the minimal amount of DMSO that could be used in combination with a formulation composed of 0.5% HPMC/0.2% Polysorbate 80. […] Blood was collected at t = 0.5, 1, 3, and 8 h and immediately spun for 3 min, the plasma was collected, and compound levels were quantified with HPLC/MS. The raw data are available in the Supplemental Information.
With the probe molecule having favorable selectivity and potency in vitro and in a cellular context, we next wanted to determine its suitability for in vivo experiments. SGC-CAMKK2-1 (5) was progressed to a single dose mouse intraperitoneal (I.P) experiment.

[3] = tested on: p-AMPK(Thr172) in C4-2 cells; assay: Western blot of p-AMPK(Thr172) in C4-2 prostate cancer cells; assay type: cell-based; conditions: C4-2, 24 h, 24 h treatment, three individual experiments, read-out: IC50 for decrease of p-AMPK(Thr172) normalized to total AMPK
Description: C4-2 cells were plated in 6-well plates in IMEM medium containing 0.5% FBS. After 72 h, the cells were then treated with the compounds for 24 h before the media was aspirated and cells were washed twice in ice-cold PBS. Cells were lysed using RIPA buffer containing phosphatase and protease inhibitor cocktail while rotating for 30 min at 4 °C. In each lane, 30 μg/well of protein lysate was loaded into a 10% SDS-PAGE gel and run for 1 h and 30 min. Gels were then transferred overnight in a TRIS-glycine/methanol transfer buffer onto a PVDF membrane at 4 °C. Membranes were blocked, incubated with primary overnight at 4 °C, washed, incubated with secondary at room temperature for 1 h, washed, and then developed on an Azure Biosystems C-600 imager. Densitometry was performed using ImageJ. Total-AMPK was normalized to GAPDH and then p-AMPK was normalized to normalized total-AMPK. Normalized p-AMPK was used to calculate IC50 in GraphPad Prism 9.5.0. Primary antibodies used were from Cell Signaling (Danvers, MA, USA; Phospho-AMPKα (Thr172) (40H9) Rabbit mAb: Cat#: 2535; AMPKα (D5A2) Rabbit mAb Cat#: 5831), BD Bioscience (Franklin Lakes, NJ, USA; CAMKK2 mouse mAb Cat# 610544), and Sigma (St. Louis, MO, USA; GAPDH rabbit pAb: Cat# G9545). Secondary antibody (Goat Anti-Rabbit IgG (H + L)-HRP Conjugate; Cat#:1706515) was from Bio-Rad Laboratories (Hercules, CA, USA).
In this experiment, IC50 was calculated via quantifying changes in p-AMPK(Thr172) normalized to total AMPK levels.

SMILES: CN(C)Cc1ccc(-c2cc3c(-c4ccc(C(N)=O)cc4)ccnc3[nH]2)cc1 [Compound 3]
- pIC50 (CAMKK2) [1]: 8.5

SMILES: O=C(O)c1ccc(-c2ccnc(Nc3cccc(-c4ccccc4)c3)n2)cc1 [Compound 4]
- pIC50 (CAMKK2) [1]: 8.1

SMILES: O=C(O)c1ccc2c3c1cccc3c(=O)n1c3ccccc3nc21 [STO-609, reference compound]
- plasma concentration / in vivo PK (in words) [2]: considerably higher plasma concentrations than SGC-CAMKK2-1
- IC50 [3]: 10.7 µM
